Where a name gives a salt, the structure may show the parent alone.
How the values were obtained:
FGFR1 = molecular target: T1, FGFR1 (Homo sapiens, UniProt P11362); experiment: Kinase binding assay (kinase-tagged T7 phage, affinity beads, qPCR), Kd; settings: read-out: FGFR1 (Kd nM)
T1 construct: made in house; host or cells: E. coli (BL21-derived), T7 phage
How it was run: (§1)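 T7 phage displaying each kinase, grown in a BL21-derived E. coli host at 32° C until lysis, competed with test compound for biotinylated ligand immobilised on streptavidin beads. Bead-bound kinase was eluted and quantified by qPCR. Kd came from an 11-point 3-fold dilution series fitted to the Hill equation with slope fixed at −1.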

FGFR3 = molecular target: T2, FGFR3 (Homo sapiens, UniProt P22607); experiment: as above; settings: read-out: FGFR3 (Kd nM)
T2 construct: made in house; host or cells: E. coli (BL21-derived), T7 phage
How it was run: as §1

[1] = tested on: KATO-III cell line (FGFR2 amplification); experiment: Cancer cell line cell viability assay (Cell Titer-Glo), 72 hr; format: cell-based; settings: Homo sapiens, KATO III
How it was run: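 Luminescent ATP read-out (Cell Titer-Glo 2.0) after compound exposure, normalised to DMSO-only wells. Dosing: 9 concentrations, 4-fold steps, top 3 μM, triplicates. IC50 derived by log(inhibitor) vs. response 4-parameter fit.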

[2] = tested on: KG-1 cell line (FGFR 1-fusion); experiment: as above; format: cell-based; settings: Homo sapiens, KG-1, KG-1 cell line (FGFR1-fusion)
How it was run: (§2)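 Following overnight attachment, each line receives compound in triplicate across nine 4-fold dilutions starting at 3 μM, with DMSO backfill for equal solvent. Luminescence after Cell Titer-Glo 2.0 addition gives percent viability versus DMSO control, fitted by 4-parameter logistic for IC50.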

[3] = tested on: RT112/84 cell line (FGFR3-fusion); experiment: as above; format: cell-based; settings: Homo sapiens, RT112/84, RT112/84 cell line (FGFR3-fusion)
How it was run: as §2

[4] = tested on: MDA-MB-453 cell line (FGFR4-Y367C); experiment: Cancer cell line cell viability assay (Cell Titer-Glo), 120 hr; format: cell-based; settings: Homo sapiens
How it was run: as §2

T2 sequence (P22607 23-806): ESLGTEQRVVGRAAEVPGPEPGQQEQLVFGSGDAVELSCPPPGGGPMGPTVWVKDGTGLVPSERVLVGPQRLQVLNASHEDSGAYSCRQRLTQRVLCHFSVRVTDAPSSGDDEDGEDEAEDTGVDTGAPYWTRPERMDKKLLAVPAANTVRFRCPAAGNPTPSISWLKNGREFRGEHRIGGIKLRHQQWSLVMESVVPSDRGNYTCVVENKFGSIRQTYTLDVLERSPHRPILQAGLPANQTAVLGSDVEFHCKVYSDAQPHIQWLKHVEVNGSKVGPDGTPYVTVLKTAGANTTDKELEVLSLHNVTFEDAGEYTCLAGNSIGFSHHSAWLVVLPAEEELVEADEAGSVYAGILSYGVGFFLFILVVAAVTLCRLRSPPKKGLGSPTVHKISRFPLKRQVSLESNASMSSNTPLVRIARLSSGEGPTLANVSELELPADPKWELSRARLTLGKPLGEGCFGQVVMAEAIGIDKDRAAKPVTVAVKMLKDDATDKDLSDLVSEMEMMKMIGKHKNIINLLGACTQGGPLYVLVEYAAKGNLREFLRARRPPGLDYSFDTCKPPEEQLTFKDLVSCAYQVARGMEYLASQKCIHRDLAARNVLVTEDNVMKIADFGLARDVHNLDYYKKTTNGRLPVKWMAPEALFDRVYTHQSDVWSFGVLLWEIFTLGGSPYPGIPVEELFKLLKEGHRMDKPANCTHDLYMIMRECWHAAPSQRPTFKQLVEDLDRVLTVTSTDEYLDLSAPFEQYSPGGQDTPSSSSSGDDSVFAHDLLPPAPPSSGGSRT
T1 sequence (P11362 22-822): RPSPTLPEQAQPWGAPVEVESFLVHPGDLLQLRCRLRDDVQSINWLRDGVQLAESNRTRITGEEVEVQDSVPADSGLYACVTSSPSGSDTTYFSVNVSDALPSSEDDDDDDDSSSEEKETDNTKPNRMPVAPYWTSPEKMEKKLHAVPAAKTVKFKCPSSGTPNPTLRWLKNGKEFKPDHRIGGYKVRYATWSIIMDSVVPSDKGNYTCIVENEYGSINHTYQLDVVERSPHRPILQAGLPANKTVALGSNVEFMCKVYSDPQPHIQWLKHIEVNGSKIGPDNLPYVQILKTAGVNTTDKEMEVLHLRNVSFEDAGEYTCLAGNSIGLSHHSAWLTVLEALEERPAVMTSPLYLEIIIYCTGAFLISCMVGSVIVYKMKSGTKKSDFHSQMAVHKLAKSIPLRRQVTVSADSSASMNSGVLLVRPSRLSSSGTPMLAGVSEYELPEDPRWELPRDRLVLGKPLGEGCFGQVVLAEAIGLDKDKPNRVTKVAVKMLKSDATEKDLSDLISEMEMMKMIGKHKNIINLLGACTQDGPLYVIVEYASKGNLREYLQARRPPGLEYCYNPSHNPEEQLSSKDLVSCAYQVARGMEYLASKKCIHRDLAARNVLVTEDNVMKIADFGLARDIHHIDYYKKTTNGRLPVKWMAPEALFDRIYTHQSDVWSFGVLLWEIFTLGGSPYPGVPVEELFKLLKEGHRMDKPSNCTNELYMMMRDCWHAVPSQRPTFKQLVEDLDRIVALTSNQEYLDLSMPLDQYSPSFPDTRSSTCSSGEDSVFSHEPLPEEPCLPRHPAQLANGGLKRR

| Kd (FGFR1) | Kd (FGFR3) | IC50 [1] | IC50 [2] | IC50 [3] | IC50 [4] | Structure (SMILES) |
| --- | --- | --- | --- | --- | --- | --- |
| 1 to 50 nM | 1 to 50 nM | 50 to 200 nM | 50 to 200 nM | 0.1 to 50 nM | 50 to 200 nM | CCC1(NCC2CC2)CN(c2ncc(-c3n[nH]c4ccc(O[C@H](C)c5c(Cl)cncc5Cl)cc34)cc2F)C1 [Example 247, N-(cyclopropylmethyl)-1-[5-[5-[(1R)-1-(3,5-dichloro-4-pyridyl)ethoxy]-1H-indazol-3-yl]-3-fluoro-2-pyridyl]-3-ethyl-azetidin-3-amine dihydrochloride] |
| 50 to 300 nM | 1 to 50 nM | 50 to 200 nM | 200 to 1000 nM | 0.1 to 50 nM | 200 to 1000 nM | Cc1ncc(Cl)c([C@@H](C)Oc2ccc3[nH]nc(-c4cnc(N5CC(CC#N)(NCC6CC6)C5)c(F)c4)c3c2)c1Cl [Example 250, 2-[3-(cyclopropylmethyl-amino)-1-[5-[5-[(1R)-1-(3,5-di-chloro-2-methyl-4-pyridyl)ethoxy]-1H-indazol-3-yl]-3-fluoro-2-pyridyl]azetidin-3-yl]acetonitrile] |
| 1 to 50 nM | 1 to 50 nM | 0.1 to 50 nM | 50 to 200 nM | 0.1 to 50 nM | 50 to 200 nM | C[C@@H](Oc1ccc2[nH]nc(-c3cnc(N4CC(CC#N)(N5CCCC5)C4)c(F)c3)c2c1)c1c(Cl)cncc1Cl [Example 251, (R)-2-(1-(5-(5-(1-(3,5-dichloropyridin-4-yl)ethoxy)-1H-indazol-3-yl)-3-fluoropyridin-2-yl)-3-(pyrrolidin-1-yl)azetidin-3-yl)acetonitrile] |
| 1 to 50 nM | 1 to 50 nM | 0.1 to 50 nM | 50 to 200 nM | 0.1 to 50 nM | 50 to 200 nM | CC(C)C1(N)CN(c2ncc(-c3n[nH]c4ccc(O[C@H](C)c5c(Cl)cncc5Cl)cc34)cc2F)C1 [Example 255, (R)-1-(5-(5-(1-(3,5-dichloropyridin-4-yl)ethoxy)-1H-indazol-3-yl)-3-fluoropyridin-2-yl)-3-isopropylazetidin-3-amine] |
| 1 to 50 nM | 1 to 50 nM | 50 to 200 nM | 50 to 200 nM | 0.1 to 50 nM | 50 to 200 nM | C[C@@H](Oc1ccc2[nH]nc(-c3cnc(N4CC(N)(C5CCC5)C4)c(F)c3)c2c1)c1c(Cl)cncc1Cl [Example 256, (R)-3-cyclobutyl-1-(5-(5-(1-(3,5-dichloropyridin-4-yl)ethoxy)-1H-indazol-3-yl)-3-fluoropyridin-2-yl)azetidin-3-amine] |
| 1 to 50 nM | 1 to 50 nM | 50 to 200 nM | 200 to 1000 nM | 0.1 to 50 nM | 200 to 1000 nM | CC(C)CC1(N)CN(c2ncc(-c3n[nH]c4ccc(O[C@H](C)c5c(Cl)cncc5Cl)cc34)cc2F)C1 [Example 258, (R)-1-(5-(5-(1-(3,5-dichloropyridin-4-yl)ethoxy)-1H-indazol-3-yl)-3-fluoropyridin-2-yl)-3-isobutylazetidin-3-amine] |
| 1 to 50 nM | 1 to 50 nM | 0.1 to 50 nM | 50 to 200 nM | 0.1 to 50 nM | 0.1 to 50 nM | C[C@@H](Oc1ccc2[nH]nc(-c3cnc(N4CC(N)(CCO)C4)c(F)c3)c2c1)c1c(Cl)cncc1Cl [Example 259, (R)-2-(3-amino-1-(5-(5-(1-(3,5-dichloropyridin-4-yl)ethoxy)-1H-indazol-3-yl)-3-fluoropyridin-2-yl)azetidin-3-yl)ethanol] |
| 1 to 50 nM | 1 to 50 nM | 50 to 200 nM | 50 to 200 nM | 0.1 to 50 nM | 0.1 to 50 nM | CCC1(N)CN(c2ncc(-c3n[nH]c4ccc(O[C@H](C)c5c(Cl)cncc5Cl)cc34)cc2F)C1 [Example 260, 1-[5-[5-[(1R)-1-(3,5-dichloro-4-pyridyl)ethoxy]-1H-indazol-3-yl]-3-fluoro-2-pyridyl]-3-ethyl-azetidin-3-amine] |
| 1 to 50 nM | 1 to 50 nM | 0.1 to 50 nM | 50 to 200 nM | 0.1 to 50 nM | 50 to 200 nM | C[C@@H](Oc1ccc2[nH]nc(-c3cnc(N4CC(C)(OCCN5CCCC5)C4)c(F)c3)c2c1)c1c(Cl)cncc1Cl [Example 261, (R)-5-(1-(3,5-dichloropyridin-4-yl)ethoxy)-3-(5-fluoro-6-(3-methyl-3-(2-(pyrrolidin-1-yl)ethoxy)azetidin-1-yl)pyridin-3-yl)-1H-indazole] |
| 1 to 50 nM | 1 to 50 nM | 50 to 200 nM | 50 to 200 nM | 0.1 to 50 nM | 200 to 1000 nM | C[C@@H](Oc1ccc2[nH]nc(-c3cnc(N4CC(N)(CC5CC5)C4)c(F)c3)c2c1)c1c(Cl)cncc1Cl [Example 262, (R)-3-(cyclopropylmethyl)-1-(5-(5-(1-(3,5-dichloropyridin-4-yl)ethoxy)-1H-indazol-3-yl)-3-fluoropyridin-2-yl)azetidin-3-amine] |
| 1 to 50 nM | 1 to 50 nM | 50 to 200 nM | 50 to 200 nM | 0.1 to 50 nM | 50 to 200 nM | C=CCC1(N)CN(c2ncc(-c3n[nH]c4ccc(O[C@H](C)c5c(Cl)cncc5Cl)cc34)cc2F)C1 [Example 264, (R)-3-ally1-1-(5-(5-(1-(3,5-dichloropyridin-4-yl)ethoxy)-1H-indazol-3-yl)-3-fluoropyridin-2-yl)azetidin-3-amine] |
| 1 to 50 nM | 1 to 50 nM | 50 to 200 nM | 200 to 1000 nM | 0.1 to 50 nM | > 1000 nM | C[C@@H](Oc1ccc2[nH]nc(-c3cnc(N4CC(N)(CC(C)(C)O)C4)c(F)c3)c2c1)c1c(Cl)cncc1Cl [Example 266, (R)-1-(3-amino-1-(5-(5-(1-(3,5-dichloropyridin-4-yl)ethoxy)-1H-indazol-3-yl)-3-fluoropyridin-2-yl)azetidin-3-yl)-2-methylpropan-2-ol] |
| 1 to 50 nM | 1 to 50 nM | 50 to 200 nM | > 1000 nM | 0.1 to 50 nM | 200 to 1000 nM | C[C@@H](Oc1ccc2[nH]nc(-c3ccc(N4CC(N)(CCO)C4)nn3)c2c1)c1c(Cl)cncc1Cl [Example 267, (R)-2-(3-amino-1-(6-(5-(1-(3,5-dichloropyridin-4-yl)ethoxy)-1H-indazol-3-yl)pyridazin-3-yl)azetidin-3-yl)ethanol] |
| 1 to 50 nM | 1 to 50 nM | 0.1 to 50 nM | 50 to 200 nM | 0.1 to 50 nM | 200 to 1000 nM | C[C@@H](Oc1ccc2[nH]nc(-c3ccc(N4CC(C)(OCCN5CCCC5)C4)nn3)c2c1)c1c(Cl)cncc1Cl [Example 269, (R)-5-(1-(3,5-dichloropyridin-4-yl)ethoxy)-3-(6-(3-methyl-3-(2-(pyrrolidin-1-yl)ethoxy)azetidin-1-yl)pyridazin-3-yl)-1H-indazole] |
| 1 to 50 nM | 1 to 50 nM | 0.1 to 50 nM | 50 to 200 nM | 0.1 to 50 nM | 0.1 to 50 nM | C[C@@H](Oc1ccc2[nH]nc(-c3cnc(N4CC(N)(CCS(C)(=O)=O)C4)c(F)c3)c2c1)c1c(Cl)cncc1Cl [Example 270, (R)-1-(5-(5-(1-(3,5-dichloropyridin-4-yl)ethoxy)-1H-indazol-3-yl)-3-fluoropyridin-2-yl)-3-(2-(methylsulfonyl)ethyl)azetidin-3-amine] |
| 1 to 50 nM | 1 to 50 nM | 50 to 200 nM | 200 to 1000 nM | 0.1 to 50 nM | 0.1 to 50 nM | CC(C)=CCC1(N)CN(c2ncc(-c3n[nH]c4ccc(O[C@H](C)c5c(Cl)cncc5Cl)cc34)cc2F)C1 [Example 271, (R)-1-(5-(5-(1-(3,5-dichloropyridin-4-yl)ethoxy)-1H-indazol-3-yl)-3-fluoropyridin-2-yl)-3-(3-methylbut-2-en-1-yl)azetidin-3-amine] |
| 1 to 50 nM | 1 to 50 nM | 50 to 200 nM | 50 to 200 nM | 0.1 to 50 nM | 200 to 1000 nM | C[C@@H](Oc1ccc2[nH]nc(-c3ccc(N4CC(N)(CC5CC5)C4)nn3)c2c1)c1c(Cl)cncc1Cl [Example 272, (R)-3-(cyclopropylmethyl)-1-(6-(5-(1-(3,5-dichloropyridin-4-yl)ethoxy)-1H-indazol-3-yl)pyridazin-3-yl)azetidin-3-amine] |
| 1 to 50 nM | 1 to 50 nM | 0.1 to 50 nM | 0.1 to 50 nM | 0.1 to 50 nM | 0.1 to 50 nM | COCCC1(N)CN(c2ncc(-c3n[nH]c4ccc(O[C@H](C)c5c(Cl)cncc5Cl)cc34)cc2F)C1 [Example 273, (R)-1-(5-(5-(1-(3,5-dichloropyridin-4-yl)ethoxy)-1H-indazol-3-yl)-3-fluoropyridin-2-yl)-3-(2-methoxy-ethyl)azetidin-3-amine] |
| 1 to 50 nM | 1 to 50 nM | 0.1 to 50 nM | 50 to 200 nM | 0.1 to 50 nM | 200 to 1000 nM | C=CCC1(N)CN(c2ccc(-c3n[nH]c4ccc(O[C@H](C)c5c(Cl)cncc5Cl)cc34)nn2)C1 [Example 274, (R)-3-allyl-1-(6-(5-(1-(3,5-dichloropyridin-4-yl)ethoxy)-1H-indazol-3-yl)pyridazin-3-yl)azetidin-3-amine] |

Reference: patent US20250368666A1, “INDAZOLE COMPOUNDS” (TYRA BIOSCIENCES, INC., priority 2022, published 2025)
